# Assay results reported in PMC8780658 (Pharmaceutics, 2021).
# Where a SMILES comes first, the peptide text is derived from it. The star is where a group is joined. Doxorubicin(3'-N) = COc1cccc2c1C(=O)c1c(O)c3c(c(O)c1C2=O)C[C@@](O)(C(=O)CO)C[C@@H]3O[C@H]1C[C@H](N*)[C@H](O)[C@H](C)O1; Propanoyl(3-maleimido) = O=C1C=CC(=O)N1CCC(=O)*; PEG2 = NCCOCCOCCC(=O)O
# What was measured:
# [1] = Pharmacokinetics after intravenous injection; format: in vivo; settings: BALB/c nude mice, i.v.
# Description: Mice were bred under pathogen-free conditions at the Korea Institute of Science and Technology (KIST). All experiments with live animals were performed in compliance with the relevant laws and institutional guidelines of Institutional Animal Care and Use Committee (IACUC) in Korea Institute of Science and Technology (KIST), and IACUC approved the experiment (approved number of 2020-123). […] Then, each drug in the blood samples was extracted with DMSO by intense vortex and the samples were centrifuged at 2000 rpm for 40 min to obtain as a blood plasma. Finally, amount of free DOX and Al-ProD in samples was analyzed by IVIS Lumina Series III system (PerkinElmer; Waltham, MA, USA).
# [2] = test system: MDA-MB231 tumor; test: Biodistribution in breast tumor models (NIRF imaging)
# Description: The biodistribution of Al-ProD was assessed in breast tumor models, which were prepared by subcutaneous inoculation of 1 × 10^7 MBA-MB231 cells into the left flank of BALB/c nude mice. […] Then, noninvasive near-infrared fluorescence (NIRF) imaging was performed using an IVIS Lumina Series III system after 0 h, 3 h, 6 h, 12 h, 24 h, 48 h, and 72 h of injection. Fluorescence intensities in tumor regions were quantified via Living Image software. Mice were sacrificed after 12 h of injection for ex vivo imaging, followed by the collection of lung, liver, kidney, spleen, heart, and tumor tissues. Tumor tissues were also cut into 10 µm thick sections for histological assays. Slide-mounted tumor sections were analyzed by Leica TCS SP8 confocal laser-scanning microscope.
# [3] = In vivo toxicity evaluation in MDA-MB231 tumor-bearing mice
# Description: (§1) Antitumor efficacy was assessed by measuring tumor volumes once every two days, calculated as largest diameter × smallest diameter^2 × 0.53, once every 2 days. The body weights of mice were also measured once every two days to assess in vivo toxicity. The in vivo toxicity of Al-ProD was further assessed by histological analyses. At 20 days after treatment, major organs were collected from mice and samples were stained with H&E following the manufacturer’s protocol. Then, organ sections were observed using an optical microscope.
# [4] = target: T1, bovine serum albumin (BSA) (Bos taurus, UniProt P02769); test: Albumin binding of Al-ProD, SDS-PAGE band shift; settings: 100 µM compound, 700 µM albumin in PBS pH 7.4, room temperature, 1 h; native 12% SDS-PAGE, trans-UV; unbound band below 7 kDa
# T1 construct: purchased Sigma Aldrich
# Description: (§2) The albumin-binding property of Al-ProD was firstly evaluated. Briefly, to a human serum albumin (HSA), mouse serum albumin (MSA), or bovine serum albumin (BSA; 700 µM in PBS; pH 7.4), Al-ProD (100 µM) was added and incubated for 0, 5, and 60 min at room temperature. As a control, the HSA solution was pre-incubated with γ-maleimidobutyric acid for 1 h before adding Al-ProD. After incubation, samples were analyzed via native 12% SDS-PAGE gel. The gels were observed by trans-UV using the iBright^TM Imaging System (Invitrogen by Thermo Fisher Scientiric), and then stained with coomassie blue for visualizing proteins. The albumin-binding property of Al-ProD was further analyzed using reverse-phased high performance liquid chromatography (RP-HPLC; […]; Agilent Technologies) with ACN/H2O gradient from 80:20 to 20:80 for 30 min under a fluorescence detector (Ex/Em: 530/590 nm). […] Next, cathepsin B-specific cleavage of Al-ProD that was pre-incubated with HSA for 5 min (HSA-bound Al-ProD; 10 µM) was assessed by incubating with cathepsin B, cathepsin E, cathepsin D, cathepsin L, caspase-9, or caspase-3 (50 µg) at 37 °C for 24 h, followed by an analysis using HPLC with ACN/H2O gradient from 20:80 to 80:20 for 30 min.
# [5] = target: T2, mouse serum albumin (MSA) (Mus musculus, UniProt P07724); test: Albumin binding of Al-ProD, SDS-PAGE band shift; settings: 100 µM compound, 700 µM albumin in PBS pH 7.4, room temperature, 1 h; native 12% SDS-PAGE, trans-UV; unbound band below 7 kDa
# T2 construct: purchased Sigma Aldrich
# Description: as §2
# [6] = test system: MDA-MB231 cells; test: Cellular uptake, confocal fluorescence imaging; format: cell-based, human; settings: 2 µM, 48 h, 37 °C, CLSM
# Description: (§3) To assess intracellular behavior of Al-ProD via fluorescence imaging, 3 × 10^5 MDA-MB231 and H9C2 cells were seeded in confocal dishes. […] As a control, MDA-MB231 cells were pre-incubated for 2 h with cathepsin B-inhibitory siRNA that was pre-incubated with Lipofectamine 2000 for 40 min at room temperature. Then, cells were washed twice with DPBS, fixed with 5% paraformaldehyde for 15 min, and stained with 4′,6-diamidino-2-phenylindole (DAPI) for 10 min. Fluorescence imaging was performed using a Leica TCS SP8 confocal laser-scanning microscope (Leica Microsystems GmbH; Wetzlar, Germany). The DOX fluorescence in images was quantitatively analyzed using an Image Pro software (Media Cybernetic, Rockville, MD, USA).
# [7] = test system: H9C2 cells; test: Cellular uptake, confocal fluorescence imaging; format: cell-based, rat; settings: 2 µM, 48 h, 37 °C, CLSM
# Description: as §3
# [8] = test system: MDA-MB231 tumor; test: Antitumor efficacy in MDA-MB231 tumor-bearing mice; format: in vivo, BALB/c nude mice; settings: 3 mg/kg based on DOX contents, once every three days; saline group 1810.98 ± 544.56 mm^3
# Description: as §1
# [9] = 12 h after i.v. injection, 3 mg/kg based on DOX contents
# [10] = 3 mg/kg based on DOX contents, once every three days
# T1 sequence (P02769 25-607): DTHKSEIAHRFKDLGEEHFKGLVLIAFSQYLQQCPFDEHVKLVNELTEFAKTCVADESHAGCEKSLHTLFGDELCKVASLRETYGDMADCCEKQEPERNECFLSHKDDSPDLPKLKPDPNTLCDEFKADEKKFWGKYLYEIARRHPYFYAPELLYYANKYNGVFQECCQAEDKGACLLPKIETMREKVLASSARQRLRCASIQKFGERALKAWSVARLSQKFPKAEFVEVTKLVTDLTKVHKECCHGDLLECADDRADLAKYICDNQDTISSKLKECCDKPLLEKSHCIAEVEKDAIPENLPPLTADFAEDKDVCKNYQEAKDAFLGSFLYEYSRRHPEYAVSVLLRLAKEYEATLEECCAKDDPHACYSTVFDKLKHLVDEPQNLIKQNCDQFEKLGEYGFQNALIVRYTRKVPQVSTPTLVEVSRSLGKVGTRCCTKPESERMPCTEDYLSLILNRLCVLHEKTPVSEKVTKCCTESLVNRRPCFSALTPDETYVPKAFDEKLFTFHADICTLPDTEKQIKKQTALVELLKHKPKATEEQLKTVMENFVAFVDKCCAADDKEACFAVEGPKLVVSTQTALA
# T2 sequence (P07724 25-608): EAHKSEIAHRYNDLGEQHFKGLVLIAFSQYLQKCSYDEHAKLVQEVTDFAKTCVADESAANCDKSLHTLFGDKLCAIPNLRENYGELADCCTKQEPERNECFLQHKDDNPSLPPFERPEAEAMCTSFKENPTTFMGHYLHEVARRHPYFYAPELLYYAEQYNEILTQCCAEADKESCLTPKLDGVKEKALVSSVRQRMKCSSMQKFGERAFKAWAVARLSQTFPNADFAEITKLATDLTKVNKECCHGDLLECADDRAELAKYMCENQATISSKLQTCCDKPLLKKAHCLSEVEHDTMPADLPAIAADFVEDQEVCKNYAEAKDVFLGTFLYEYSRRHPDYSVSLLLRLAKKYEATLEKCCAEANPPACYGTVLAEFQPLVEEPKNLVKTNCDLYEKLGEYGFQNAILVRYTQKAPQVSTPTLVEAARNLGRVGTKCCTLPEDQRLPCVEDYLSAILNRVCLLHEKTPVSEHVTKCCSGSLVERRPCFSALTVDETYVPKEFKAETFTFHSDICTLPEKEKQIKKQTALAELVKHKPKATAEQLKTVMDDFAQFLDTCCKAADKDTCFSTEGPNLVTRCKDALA
structure (smiles),measurement,setting,value
"COc1cccc2c1C(=O)c1c(O)c3c(c(O)c1C2=O)C[C@@](O)(C(=O)CO)C[C@@H]3O[C@H]1C[C@H](NC(=O)CNC(=O)[C@H](CCCNC(=N)N)NC(=O)[C@H](CCCNC(=N)N)NC(=O)[C@H](Cc2ccccc2)NC(=O)CCOCCOCCNC(=O)CCN2C(=O)C=CC2=O)[C@H](O)[C@H](C)O1 [Al-ProD, maleimide-PEG2-FRRG-DOX] ({Propanoyl(3-maleimido)-PEG2}-FRRG-{Doxorubicin(3'-N)})",AUC increase compared with free DOX,[1]; 3 mg/kg based on DOX contents,approximately sevenfold
same,Time for which a detectable amount remained in the body,[1]; 3 mg/kg based on DOX contents,144 h
same,"DOX fluorescence from tumor tissues relative to free DOX, NIRF imaging",[2]; [9],3.33–4.08 fold
same,"DOX fluorescence in tumor tissues relative to free DOX group, ex vivo imaging",[2]; [9],3.41–4.92 fold
same,DOX fluorescence in whole tumor tissue sections (histology),"[2]; 12 h after i.v. injection, 3 mg/kg based on DOX contents, confocal microscopy",strong DOX fluorescence
same,Time for which DOX fluorescence was retained in tumor tissues,"[2]; NIRF imaging, i.v., 3 mg/kg based on DOX contents",72 h
same,Body weights during treatment,[3]; [10],no significant body weight loss
same,Mice survival during treatment,[3]; [10],over 25 days
same,Normal organs stained with H&E,[3]; day 20 after treatment,negligible toxicity
"COc1cccc2c1C(=O)c1c(O)c3c(c(O)c1C2=O)C[C@@](O)(C(=O)CO)C[C@@H]3O[C@H]1C[C@H](N)[C@H](O)[C@H](C)O1 [free DOX, doxorubicin]",Band in SDS-PAGE gel after incubation with BSA (albumin binding),[4],not bound
same,Band in SDS-PAGE gel after incubation with MSA (albumin binding),[5],not bound
same,Intracellular location of DOX fluorescence in MDA-MB231 cells,[6],clearly observed at the nuclei
same,Intracellular location of DOX fluorescence in H9C2 cells,[7],clearly observed at the nuclei
same,"In vivo half-life, T1/2","[1]; 3 mg/kg based on DOX contents, plasma fluorescence by IVIS",15 min
same,In vivo half-life,"[1]; 3 mg/kg, plasma fluorescence by IVIS",15 min
same,Course of DOX fluorescence in tumor tissues,"[2]; mouse, in vivo, iv, 3 mg/kg",rapidly decreased for 6 h
same,DOX fluorescence in whole tumor tissue sections (histology),"[2]; mouse, in vivo, iv, 3 mg/kg",only a small quantity
same,Tumor volume on day 20 after treatment,[8],580.25 ± 139.92 mm^3
same,Mice survival during treatment,[3]; [10],≤ 18 days
same,Median survival,"[3]; 3 mg/kg once every three days, saline group 20 days",16 days
same,Normal organs stained with H&E,"[3]; mouse, in vivo",structural abnormalities
